Measured values taken from patent US7763669B2, “Low-viscosity, radiation-curable formulation for producing adaptive earpieces” (Dreve-Otoplastik GmbH, priority 2004, dated 2010).

Tests used:
[1] = Flexural strength, modulus of elasticity and elongation per EN ISO 178 (Zwick 1 test unit) on post-cured test pieces; assay type: physicochemical
Procedure: The flexural strength, modulus of elasticity, and elongation were determined in accordance with EN ISO 178 (1996), using a Zwick 1 test unit from Zwick. The test pieces were post-cured for 2×7 min, using the PCU stroboscope irradiation unit from Dreve.
(§1) Table 2 lists the parameters for the above-described resins that are relevant for the stereolithographic process. All viscosity measurements were performed at 23° C. using a CVO rheometer from Bohlin Instruments. The flexural strength, modulus of elasticity, and elongation were determined in accordance with EN ISO 178 (1996), using a Zwick 1 test unit from Zwick. For determining the Ec and Dp values using the above-described windowpane method, in each case the average values were determined for 10 windowpane test pieces. The test pieces were produced using a Viper si2 SLA system (3D Systems) equipped with a Nd:YVO4 solid-state laser. The green compacts were post-cured for 2×7 min, using the Fototec PCU stroboscope irradiation unit from Dreve.

[2] = Windowpane method for critical energy Ec and laser penetration depth Dp; assay type: physicochemical; conditions: small quantities added to resin formulation; for Influence of inhibitor addition on penetration depth of the laser beam Dp: FIGS. 3 and 5; for Influence of inhibitor addition on critical energy Ec: FIGS. 4 and 6
Procedure: The influence of the concentration of phenothiazine (PTZ) and 2,2-diphenyl-1-picrylhydrazyl radical (DPPH) in the formulations of Examples 1 and 2 on the penetration depth of the laser beam and the critical energy is illustrated in FIGS. 3 through 6. The laser penetration depth and the critical energy were determined using the windowpane method described by P. F. Jacobs and D. T. Reid in Rapid Prototyping & Manufacturing, Society of Manufacturing Engineers, Dearborn, Mich., 1992, 1st Ed., pp. 263-280. […] This influence of the inhibitors phenothiazine (PTZ) and 2,2-diphenyl-1-picrylhydrazyl radical (DPPH) on the is relevant parameter Ec (critical energy, mJ·cm^−2) and Dp (laser penetration depth, mils) for the stereolithographic resin differs from the influence of the inhibitors, such as p-methoxyphenol, added to the stereolithographic resins corresponding to the prior art (L. E. Levy, J. Polym. Sci., Part A, Polym. Chem. 30 (1992), 569ff). For example, in comparison to p-methoxyphenol the parameters Ec and Dp may be linearly adjusted in a wider range by small concentrations of the inhibitors. This is of great advantage, particularly for the production of such resins and adjustment of the above-described parameters. From a technical production standpoint this may be used to adjust the laser penetration depth that has a direct influence on the accuracy of the production process. For example, performing curing over a value of laser penetration depth that exceeds the desired layer thickness for the process reduces the resolution of the process. High values of the laser penetration depth play an important role in particular for transparent stereolithographic resins that preferably are used for producing otoplastic parts. In the case of stereolithographic resins in the medical field, however, in particular stereolithographic resins for the production of the above-described adaptive earpieces, the accuracy of the production, and thus, the fit, of the molded body is of paramount importance.
as §1

[3] = resin formulation from Example 2, inhibitor concentration 0.01 % by wt.
[4] = resin formulation from Example 2, inhibitor concentration 0.025 % by wt.
[5] = resin formulation from Example 2, inhibitor concentration 0.05 % by wt.
[6] = resin formulation from Example 2, inhibitor concentration 0.10 % by wt.
[7] = resin formulation from Example 2, inhibitor concentration 0.15 % by wt.

## 2,2-diphenyl-1-picrylhydrazyl radical [DPPH]
[1]; [3]
  Elongation to break: 13%
  Flexural strength: 61 N · mm^−2
  Modulus of elasticity: 1452 N · mm^−2
[1]; [4]
  Elongation to break: 11%
  Flexural strength: 69 N · mm^−2
  Modulus of elasticity: 1324 N · mm^−2
[1]; [5]
  Elongation to break: 10%
  Flexural strength: 66 N · mm^−2
  Modulus of elasticity: 1277 N · mm^−2
[2]
  Influence of inhibitor addition on penetration depth of the laser beam Dp: linear decrease
  Influence of inhibitor addition on critical energy Ec: sharp, essentially linear increase

## c1ccc2c(c1)Nc1ccccc1S2 [Phenothiazine, phenothiazine]
[1]; [4]
  Elongation to break: 15%
  Flexural strength: 95 N · mm^−2
  Modulus of elasticity: 1867 N · mm^−2
[1]; [5]
  Elongation to break: 13%
  Flexural strength: 95 N · mm^−2
  Modulus of elasticity: 1989 N · mm^−2
[1]; [6]
  Elongation to break: 12%
  Flexural strength: 101 N · mm^−2
  Modulus of elasticity: 2007 N · mm^−2
[1]; [7]
  Elongation to break: 10%
  Flexural strength: 89 N · mm^−2
  Modulus of elasticity: 1832 N · mm^−2
[2]
  Influence of inhibitor addition on penetration depth of the laser beam Dp: linear decrease
  Influence of inhibitor addition on critical energy Ec: sharp, essentially linear increase
